Assay results taken from US20250176550A1, “HERBICIDE COMPOSITION OF URACIL COMPOUND CONTAINING CARBOXYLATE FRAGMENT AND THE USE THEREOF” (Jiangsu Flag Chemical Industry Co., Ltd., priority 2022, published 2025).

Assays:
digitaria sanguinalis = test: Indoor virulence and combined effect, greenhouse pot test, post-emergence stem and leaf spray, fresh weight inhibition; assay type: in vivo; settings: for Fresh weight suppression rate %, B single agent: Table 14
Method: (§1) The active ingredients A and B are respectively screened and an indoor combined effect of the composition on weeds was evaluated by an indoor test and a field test, to determine a combined effect of the composition on weeds.
(§2) Quantitative seeds of Poaceae weeds (echinochloa crusgalli, Digitaria sanguinalis, setaria viridis, Eleusine indica, avena fatua, alopecurus japonicus, alopecurus aequalis, Lolium multiflorum) and broadleaf weeds (eclipta prostrata, rorippa dubia, Abutilon theophrasti, conyza canadensis, veronica persica, myosoton aquaticum, polygonum lapathifolium, galium aparine var. tenerum, alisma plantago-aquatica, geranium carolinianum) were sown in paper cup containing nutrient soil with a diameter of 7 cm, covered with soil for 1 cm after sowing. After pressing and watering, they were cultured in a greenhouse according to a conventional method. Poaceae weeds grew to 3˜4 leaf stage, broad-leaved weeds grew to 4˜6 leaf stage, spraying treatment to both stem and leaf was performed; and pre-seedling soil spray treatment was performed 24 hours after sowing. Following an experimental design dosage, a WP-2000 walking spray tower (spindle speed 96 mm/r, spray height 200 mm, effective spray amplitude of nozzle 350 mm, nozzle flow rate 390 mL/min, nozzle walking speed 210 mm/s) was used for the spray treatment. The experiment was repeated three times. After being treated, a sample material is placed in an operation hall, and after the drug solution is naturally dried out, the sample material is placed in a greenhouse and managed according to the conventional method. A reaction of weeds to the drug agent is observed and recorded, and a regularly visual check of a control effect of the drug agent on weeds was performed after the treatment.
(§3) All of original drugs were using acetone as a solvent, being diluted with 0.1 wt % emulsifier of Tween-80 aqueous solution, and being diluted right before using.
(§4) When determining a ratio or content of the active ingredient A and the active ingredient B, it should be measured from characteristics of action of both agents and virulence thereof, as well as the main purpose of use of a formula shall also be considered in. In the present study, on a basis of previous pre-test, the dosages of the active ingredient A and the active ingredient B were set, when being used alone and mixed, as shown in the following table. Water containing no agent, but containing the same solvent and emulsifier was used as a blank control.
(§5) Repeat 4 times for each treatment, 3 pots per treatment each time and 30 weed seeds were sown for each pot.
(§6) Adopting an absolute number survey method, using a blade to cut the whole seedling of surviving weed along soil surface, and weighting the fresh weight of the weed with an analytical balance. For weeds that had died, counting the fresh weight as zero.
(§7) Survey period and frequency: 21 days after the treatment, total 1 investigation.
(§8) The theoretical fresh weight inhibition rate (E0-Expected Efficacy=[…]) of each treatment combination was calculated by Gowing method, and then compared with the measured inhibition rate (E-Observed Efficacy) to evaluate the combined effect type of both on weeds. When E-E0 value was greater than 10%, it was counted as a synergistic effect, less than −10%, it was counted as an antagonistic effect, and between −10%˜10%, it was counted as an additive effect. According to a plurality of factors including an actual control efficacy, a herbicide characteristic, a formula balance and other factors to determine the best ratio. In the formula, X is the fresh weight inhibition rate of the ingredient A at a dosage of P; Y is the fresh weight inhibition rate of the active ingredient B at a dosage of Q.
(§9) The statistical results are shown in Table 1 to Table 44 below, except for those marked clearly as “pre-emergence treatment”, all others are “post-emergence treatment”. […]

eleusine indica = test: as above; assay type: in vivo
Method: as §1, §2, §3, §4, §5, §6, §7, §8, §9

CCC[S+]([O-])c1c(C(F)(F)F)ccc(C(=O)Nc2nnc(C)o2)c1F (stereo not shown) [flusulfinam]
Fresh weight suppression rate %, B single agent (digitaria sanguinalis; B 15 g a.i./ha): 34.84% | Fresh weight suppression rate %, B single agent (digitaria sanguinalis; B 30 g a.i./ha): 36.52% | Fresh weight suppression rate %, B single agent (digitaria sanguinalis; B 37.5 g a.i./ha): 40.37% | Fresh weight suppression rate %, B single agent (digitaria sanguinalis; B 45 g a.i./ha): 50.75%

C[C@@H](Oc1nc(F)c(Cl)c(N)c1Cl)C(=O)OCC1CCCO1 (stereo partly shown) [fluchloraminopyr-tefuryl]
Fresh weight inhibition rate %, B single agent (digitaria sanguinalis; Table 41, B 50 g a.i./ha): 47.40% | Fresh weight inhibition rate %, B single agent (digitaria sanguinalis; Table 41, B 80 g a.i./ha): 66.49% | Fresh weight inhibition rate %, B single agent (digitaria sanguinalis; Table 41, B 120 g a.i./ha): 74.76% | Fresh weight inhibition rate %, B single agent (digitaria sanguinalis; Table 41, B 150 g a.i./ha): 79.70%

COC(=O)[C@@H](C)O/N=C/c1cc(-n2c(=O)cc(C(F)(F)F)n(C)c2=O)c(F)cc1Cl [flufenoximacil]
Fresh weight inhibition rate %, B single agent (eleusine indica; Table 36, B 5 g a.i./ha): 34.41% | Fresh weight inhibition rate %, B single agent (eleusine indica; Table 36, B 10 g a.i./ha): 51.91% | Fresh weight inhibition rate %, B single agent (eleusine indica; Table 36, B 15 g a.i./ha (row 5 + 15)): 55.99% | Fresh weight inhibition rate %, B single agent (eleusine indica; Table 36, B 15 g a.i./ha (row 15 + 15)): 55.99% | Fresh weight inhibition rate %, B single agent (eleusine indica; Table 36, B 20 g a.i./ha): 59.18%

Cc1nn(-c2cc(NS(C)(=O)=O)c(Cl)cc2Cl)c(=O)n1C(F)F [sulfentrazone]
Fresh weight inhibition rate %, B single agent (eleusine indica; Table 32, B 75 g a.i./ha): 8.30% | Fresh weight inhibition rate %, B single agent (eleusine indica; Table 32, B 120 g a.i./ha): 18.12% | Fresh weight inhibition rate %, B single agent (eleusine indica; Table 32, B 150 g a.i./ha): 23.53%

CS(=O)(=O)c1cc(C(F)(F)F)ccc1C(=O)c1cnoc1C1CC1 [isoxaflutole]
Fresh weight inhibition rate %, B single agent (digitaria sanguinalis; Table 16, B 40 g a.i./ha): 56.12% | Fresh weight inhibition rate %, B single agent (digitaria sanguinalis; Table 16, B 50 g a.i./ha): 71.94% | Fresh weight inhibition rate %, B single agent (digitaria sanguinalis; Table 16, B 60 g a.i./ha): 73.13% | Fresh weight inhibition rate %, B single agent (digitaria sanguinalis; Table 16, B 70 g a.i./ha): 76.72%

oxadiargyl
Fresh weight inhibition rate %, B single agent (digitaria sanguinalis; Table 31, B 12.5 g a.i./ha): 38.31% | Fresh weight inhibition rate %, B single agent (digitaria sanguinalis; Table 31, B 20 g a.i./ha): 42.31% | Fresh weight inhibition rate %, B single agent (digitaria sanguinalis; Table 31, B 30 g a.i./ha): 52.31%

CC(C)N(C)S(=O)(=O)NC(=O)c1cc(-n2c(=O)cc(C(F)(F)F)n(C)c2=O)c(F)cc1Cl [saflufenacil]
Fresh weight inhibition rate %, B single agent (eleusine indica; Table 30, B 7.5 g a.i./ha): 23.20% | Fresh weight inhibition rate %, B single agent (eleusine indica; Table 30, B 12.5 g a.i./ha): 39.66% | Fresh weight inhibition rate %, B single agent (eleusine indica; Table 30, B 20 g a.i./ha): 50.62% | Fresh weight inhibition rate %, B single agent (eleusine indica; Table 30, B 30 g a.i./ha): 58.13% | Fresh weight inhibition rate %, B single agent (eleusine indica; Table 30, B 40 g a.i./ha): 50.09%

Cc1c(C(=O)c2cnn(C)c2O)ccc(S(C)(=O)=O)c1C1=NOCC1 [topramezone]
Fresh weight inhibition rate %, B single agent (digitaria sanguinalis; Table 15, B 7.5 g a.i./ha): 3.85% | Fresh weight inhibition rate %, B single agent (digitaria sanguinalis; Table 15, B 10 g a.i./ha): 17.09% | Fresh weight inhibition rate %, B single agent (digitaria sanguinalis; Table 15, B 12.5 g a.i./ha): 19.6%

COc1cc(OC)nc(NC(=O)NS(=O)(=O)c2ncccc2C(=O)N(C)C)n1 [nicosulfuron]
inhibition at 12.5 g/ha (digitaria sanguinalis; Digitaria sanguinalis, 504 h, Table 1, 12.5 g a.i./ha, post-emergence, 21 days after treatment, read-out: Fresh weight inhibition rate %, B single agent): 10.2% | inhibition at 20 g/ha (digitaria sanguinalis; Digitaria sanguinalis, 504 h, Table 1, 20 g a.i./ha, post-emergence, 21 days after treatment, read-out: Fresh weight inhibition rate %, B single agent): 23.4% | inhibition at 25 g/ha (digitaria sanguinalis; Digitaria sanguinalis, 504 h, Table 1, 25 g a.i./ha, post-emergence, 21 days after treatment, read-out: Fresh weight inhibition rate %, B single agent): 34.9% | inhibition at 30 g/ha (digitaria sanguinalis; Digitaria sanguinalis, 504 h, Table 1, 30 g a.i./ha, post-emergence, 21 days after treatment, read-out: Fresh weight inhibition rate %, B single agent): 39.1%

CS(=O)(=O)c1ccc(C(=O)C2C(=O)CCCC2=O)c([N+](=O)[O-])c1 [mesotrione]
Fresh weight inhibition rate %, B single agent (digitaria sanguinalis; Table 13, B 90 g a.i./ha): 45.39% | Fresh weight inhibition rate %, B single agent (digitaria sanguinalis; Table 13, B 105 g a.i./ha): 56.62% | Fresh weight inhibition rate %, B single agent (digitaria sanguinalis; Table 13, B 120 g a.i./ha): 58.12%

C[C@@H](Oc1ccc(Oc2nc3ccc(Cl)cc3o2)cc1)C(=O)N(C)c1ccccc1F [metamifop]
Fresh weight inhibition rate %, B single agent (digitaria sanguinalis; Table 29, B 15 g a.i./ha): 49.80% | Fresh weight inhibition rate %, B single agent (digitaria sanguinalis; Table 29, B 25 g a.i./ha): 55.48% | Fresh weight inhibition rate %, B single agent (digitaria sanguinalis; Table 29, B 40 g a.i./ha): 58.52% | Fresh weight inhibition rate %, B single agent (digitaria sanguinalis; Table 29, B 60 g a.i./ha): 60.50%

CCOC(=O)COc1ncccc1Oc1cc(-n2c(=O)cc(C(F)(F)F)n(C)c2=O)c(F)cc1Cl [epyrifenacil]
Fresh weight inhibition rate %, B single agent (eleusine indica; Table 35, B 5 g a.i./ha): 38.04% | Fresh weight inhibition rate %, B single agent (eleusine indica; Table 35, B 10 g a.i./ha): 32.92% | Fresh weight inhibition rate %, B single agent (eleusine indica; Table 35, B 15 g a.i./ha): 37.91% | Fresh weight inhibition rate %, B single agent (eleusine indica; Table 35, B 20 g a.i./ha): 51.59%

CC(C)N.O=C(O)CNCP(=O)(O)O [glyphosate-isopropylammonium]
Fresh weight inhibition rate %, B single agent (eleusine indica; Table 18, B 160 g a.i./ha): 27.36% | Fresh weight inhibition rate %, B single agent (eleusine indica; Table 18, B 240 g a.i./ha): 32.37% | Fresh weight inhibition rate %, B single agent (eleusine indica; Table 18, B 350 g a.i./ha): 35.52% | Fresh weight inhibition rate %, B single agent (eleusine indica; Table 18, B 500 g a.i./ha): 45.72%

CCOC(=O)C1(C)CC(c2cc(-n3c(=O)cc(C(F)(F)F)n(C)c3=O)c(F)cc2Cl)=NO1 (stereo not shown) [SY-1604]
Fresh weight inhibition rate %, B single agent (eleusine indica; Table 33, B 7.5 g a.i./ha): 47.10% | Fresh weight inhibition rate %, B single agent (eleusine indica; Table 33, B 12.5 g a.i./ha): 48.33% | Fresh weight inhibition rate %, B single agent (eleusine indica; Table 33, B 20 g a.i./ha): 64.09% | Fresh weight inhibition rate %, B single agent (eleusine indica; Table 33, B 30 g a.i./ha): 72.50% | Fresh weight inhibition rate %, B single agent (eleusine indica; Table 33, B 40 g a.i./ha): 74.06%
